This test concerns MPA/DMBA-induced tumours. In words: MPA/DMBA-induced breast cancer model. The format is in vivo, C57BL/6 mice. The following applies: palpable MPA/DMBA-induced tumours; systemic injection. On the procedure: Medroxyprogesterone acetate (MPA) pellets (50 mg, 90-day release) were implanted subcutaneously into the interscapular area of immunocompetent C57BL/6 mice. Then the animals received 1 mg dimethylbenzantracene (DMBA) administered by oral gavage 6× during 7 weeks. When spontaneous tumours became palpable mice were randomly assigned to receive 0.14 mg/Kg lurbinectedin (Lurbi) alone or in combination with double immune checkpoint blockade with monoclonal antibodies targeting CTLA-4 and PD-1 at day 6, 9 and 12 post treatment (a). The tumour area and overall survival were measured regularly until ethical endpoints were reached (b,c,d). Data were analyzed with TumGrowth (https://github.com/kroemerlab). […]
Six- to eight-week-old female wild-type C57BL/6 and nu/nu mice were obtained from Envigo France (Huntingdon, UK) and were kept in the animal facility at the Gustave Roussy Campus Cancer in a specific pathogen-free and temperature-controlled environment with 12 h day, 12 h night cycles and received food and water ad libitum. […] When tumours became palpable, 0.18 mg/Kg lurbinectedin was injected sequentially once a week intravenously into the tail vein and animal well-being and tumour growth were monitored. […] Animals were monitored and tumour growth documented regularly until end-points were reached. […]

Take `COc1ccc2[nH]c3c(c2c1)CCN[C@]31CS[C@@H]2c3c(OC(C)=O)c(C)c4c(c3[C@H](COC1=O)N1[C@@H]2[C@H]2c3c(cc(C)c(OC)c3O)C[C@@H]([C@@H]1O)N2C)OCO4` [lurbinectedin]: the overall survival entry is listed as “increased” and the tumour growth result was “significantly reduced”.

These data come from US20250295656A1, “COMBINATION OF LURBINECTEDIN AND IMMUNE CHECKPOINT INHIBITORS” (priority 2020, published 2025).
